From patent publication US20040152751A1, “Pyrazolidinol compounds” (priority 1999, published 2004)

Assays:
mice = assay: Mouse toxicity; type: in vivo
Method: 20 g mice were given single doses of 40H—OPB (20 mM in DMSO) intraperitoneally. […] Furthermore, injection of 40H—OPB could be increased to 2000 mg/kg (corresponding to 20 mM in the extracellular fluid) before the mice started to die (6 out of 10 died at 2000 mg/kg).

HIV-1 [1] = assay: Combination antiviral effect in HIV-1 infected MT4 cells; type: cell-based; settings: with AZT, Indinavir, Nevirapin or ddI, FIGS. 2-5
Method: (§1) 40H—OPB was added to cultures of growing MT4 cells (a human CD4 cell line). HIV-1, stored in the culture medium at −75° C. was thawed and added in an amount which infected about 1 in 7 cells in each culture. The virus was absorbed to the cells for 2.3 hours at ambient temperature whereafter the cultures were centrifuged at 1200 rpm, the medium was removed, the cells were suspended in fresh growth medium and 40H—OPB was added to concentrations of 1, 10 and 100 μM (diluted in medium from a stock solution of 20 mM in DMSO). After 72 hours the HIV antigen concentration was determined using Abbott's test. By way of comparison phenbutazone (PB) was tested analogously.
Cell culture experiments were carried out as in Example 12, but in place of 40H—OPB (0-100 μM) was added:
i) 40H—OPB ([…]) with AZT (0-1 μM)
iii) 40H—OPB (0-100 μM) with Nevirapin (0-10 μM)

HIV-1 [2] = assay: Antiviral activity: HIV antigen concentration in HIV-1 infected MT4 cells; type: cell-based; settings: MT4 cells (human CD4 cell line), 1, 10 and 100 μM, after 72 hours; FIG. 1
Method: as §1

`CCCCC1(O)C(=O)N(c2ccccc2)N(c2ccc(O)cc2)C1=O` (stereo not drawn) [40H—OPB, 4-(1-Butyl)-4-hydroxy-1-(4-hydroxyphenyl)-2-phenyl-3,5-pyrazolidinedione] was tested, and the “lethal dose expressed as concentration in the extracellular fluid” value (mice; mice, corresponding to 2000 mg/kg) was 20 mM, the “dose reached before the mice started to die (lethal dose)” value (mice; mice, single dose intraperitoneally) was 2000 mg/kg and the “factor by which concentrations that effectively inhibit HIV replication in cell cultures are lower than the lethal dose in mice” value (mice; mouse, in vivo, 2000 mg/kg) was “up to 200000 times”. For the same molecule, the mice that died (mice; mouse, in vivo, ip, 2000 mg/kg) was 6 out of 10, the “anti-HIV effect in combination with other anti-viral agents” value (HIV-1 [1]) was “enhanced anti-HIV effect” and the “inhibition of virus production (HIV antigen concentration, Abbott's test)” value (HIV-1 [2]) was “inhibition of virus production by 40H—OPB at concentrations above the lowest tested”.
